Results published in the supplement of paper PMC10307832.

Legend:
Assay in all cases: relative viability (nuclei count vs DMSO), 5 days (fraction); higher = more cells survive
[1] = compound: CC(C)=CC[C@@H](O)C1=CC(=O)c2c(O)ccc(O)c2C1=O [Shikonin] + C[C@@H](Oc1cc(-c2cnn(C3CCNCC3)c2)cnc1N)c1c(Cl)ccc(F)c1Cl [Crizotinib] (partner 1 µM)
Procedure, shortened: (§1)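 For relative viability, nuclei counts in treated wells were divided by those in vehicle wells. Lung cancer cell lines had been pin-tool dosed in 1536-well plates the day after seeding and cultured for 5 days, then fixed and stained in one step (final 0.05% Triton X-100, 1% formaldehyde, 1 ug/ml Hoechst) and imaged at 4×. Doses were one drug alone or a fixed anchor-drug dose plus five library-drug doses (not always all listed) in √10 steps, and values are duplicate-plate medians.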

[2] = compound: CC(C)=CC[C@@H](O)C1=CC(=O)c2c(O)ccc(O)c2C1=O [Shikonin] + C[C@]1(O)C[C@@H](c2nc(-c3ccc4ccc(-c5ccccc5)nc4c3)c3c(N)nccn32)C1 [Linsitinib] (partner 1 µM)
Procedure, shortened: as §1

[3] = compound: CC(C)=CC[C@@H](O)C1=CC(=O)c2c(O)ccc(O)c2C1=O [Shikonin] + CS(=O)(=O)N1CCN(Cc2cc3nc(-c4cccc5[nH]ncc45)nc(N4CCOCC4)c3s2)CC1 [Pictilisib] (partner 1 µM)
Procedure, shortened: as §1

[4] = compound: CC(C)=CC[C@@H](O)C1=CC(=O)c2c(O)ccc(O)c2C1=O [Shikonin] + Cc1cc(Nc2cc(N3CCN(C)CC3)nc(Sc3ccc(NC(=O)C4CC4)cc3)n2)n[nH]1 [Tozasertib] (partner 0.1 µM)
Procedure, shortened: as §1

[5] = compound: CC(C)=CC[C@@H](O)C1=CC(=O)c2c(O)ccc(O)c2C1=O [Shikonin] + COc1cccc2cc(-c3nc([C@H]4CC[C@H](C(=O)O)CC4)n4ncnc(N)c34)[nH]c12 [OSI-027] (partner 0.5 µM)
Procedure, shortened: as §1

NCI-H838
relative viability ([1]; first compound 0.01 µM): 0.898
relative viability ([1]; first compound 0.1 µM): 0.967
relative viability ([1]; first compound 0.3162 µM): 0.898
relative viability ([1]; first compound 1 µM): 0.99
relative viability ([2]; first compound 0.01 µM): 1.05
relative viability ([2]; first compound 0.1 µM): 1.08
relative viability ([2]; first compound 0.3162 µM): 1.07
relative viability ([2]; first compound 1 µM): 1.03
relative viability ([3]; first compound 0.01 µM): 0.529
relative viability ([3]; first compound 0.1 µM): 0.601
relative viability ([3]; first compound 0.3162 µM): 0.443
relative viability ([3]; first compound 1 µM): 0.452
relative viability ([4]; first compound 0.01 µM): 0.289
relative viability ([4]; first compound 0.1 µM): 0.264
relative viability ([4]; first compound 0.3162 µM): 0.257
relative viability ([4]; first compound 1 µM): 0.29
relative viability ([5]; first compound 0.01 µM): 0.387
relative viability ([5]; first compound 0.1 µM): 0.345
relative viability ([5]; first compound 0.3162 µM): 0.405
relative viability ([5]; first compound 1 µM): 0.459

NCI-H1355
relative viability ([1]; first compound 0.01 µM): 1.16
relative viability ([1]; first compound 0.1 µM): 1.31
relative viability ([1]; first compound 0.3162 µM): 1.19
relative viability ([1]; first compound 1 µM): 1.12
relative viability ([2]; first compound 0.01 µM): 0.764
relative viability ([2]; first compound 0.1 µM): 0.943
relative viability ([2]; first compound 0.3162 µM): 0.887
relative viability ([2]; first compound 1 µM): 0.855
relative viability ([3]; first compound 0.01 µM): 0.407
relative viability ([3]; first compound 0.1 µM): 0.498
relative viability ([3]; first compound 0.3162 µM): 0.408
relative viability ([3]; first compound 1 µM): 0.445
relative viability ([4]; first compound 0.01 µM): 0.559
relative viability ([4]; first compound 0.1 µM): 0.553
relative viability ([4]; first compound 0.3162 µM): 0.554
relative viability ([4]; first compound 1 µM): 0.583
relative viability ([5]; first compound 0.01 µM): 0.457
relative viability ([5]; first compound 0.1 µM): 0.405
relative viability ([5]; first compound 0.3162 µM): 0.37
relative viability ([5]; first compound 1 µM): 0.483

NCI-H1437
relative viability ([1]; first compound 0.01 µM): 1.02
relative viability ([1]; first compound 0.1 µM): 1.17
relative viability ([1]; first compound 0.3162 µM): 0.883
relative viability ([1]; first compound 1 µM): 0.993
relative viability ([2]; first compound 0.01 µM): 1.28
relative viability ([2]; first compound 0.1 µM): 1.05
relative viability ([2]; first compound 0.3162 µM): 1.23
relative viability ([2]; first compound 1 µM): 1.11
relative viability ([3]; first compound 0.01 µM): 0.424
relative viability ([3]; first compound 0.1 µM): 0.421
relative viability ([3]; first compound 0.3162 µM): 0.416
relative viability ([3]; first compound 1 µM): 0.477
relative viability ([4]; first compound 0.01 µM): 0.417
relative viability ([4]; first compound 0.1 µM): 0.43
relative viability ([4]; first compound 0.3162 µM): 0.405
relative viability ([4]; first compound 1 µM): 0.455
relative viability ([5]; first compound 0.01 µM): 0.936
relative viability ([5]; first compound 0.1 µM): 0.833
relative viability ([5]; first compound 0.3162 µM): 0.849
relative viability ([5]; first compound 1 µM): 0.952

NCI-H1651
relative viability ([1]; first compound 0.01 µM): 0.857
relative viability ([1]; first compound 0.1 µM): 0.831
relative viability ([1]; first compound 0.3162 µM): 0.883
relative viability ([1]; first compound 1 µM): 0.876
relative viability ([2]; first compound 0.01 µM): 0.974
relative viability ([2]; first compound 0.1 µM): 1.12
relative viability ([2]; first compound 0.3162 µM): 0.996
relative viability ([2]; first compound 1 µM): 1.01
relative viability ([3]; first compound 0.01 µM): 0.612
relative viability ([3]; first compound 0.1 µM): 0.562
relative viability ([3]; first compound 0.3162 µM): 0.669
relative viability ([3]; first compound 1 µM): 0.64
relative viability ([4]; first compound 0.01 µM): 0.8
relative viability ([4]; first compound 0.1 µM): 0.783
relative viability ([4]; first compound 0.3162 µM): 0.744
relative viability ([4]; first compound 1 µM): 0.748
relative viability ([5]; first compound 0.01 µM): 0.744
relative viability ([5]; first compound 0.1 µM): 0.469
relative viability ([5]; first compound 0.3162 µM): 0.708
relative viability ([5]; first compound 1 µM): 0.686

NCI-H1666
relative viability ([1]; first compound 0.01 µM): 1.12
relative viability ([1]; first compound 0.1 µM): 0.971
relative viability ([1]; first compound 0.3162 µM): 1.12
relative viability ([1]; first compound 1 µM): 0.744
relative viability ([2]; first compound 0.01 µM): 0.835
relative viability ([2]; first compound 0.1 µM): 0.802
relative viability ([2]; first compound 0.3162 µM): 0.807
relative viability ([2]; first compound 1 µM): 0.865
relative viability ([3]; first compound 0.01 µM): 0.643
relative viability ([3]; first compound 0.1 µM): 0.358
relative viability ([3]; first compound 0.3162 µM): 0.394
relative viability ([3]; first compound 1 µM): 0.299
relative viability ([4]; first compound 0.01 µM): 0.622
relative viability ([4]; first compound 0.1 µM): 0.636
relative viability ([4]; first compound 0.3162 µM): 0.665
relative viability ([4]; first compound 1 µM): 0.522
relative viability ([5]; first compound 0.01 µM): 0.936
relative viability ([5]; first compound 0.1 µM): 0.833
relative viability ([5]; first compound 0.3162 µM): 0.862
relative viability ([5]; first compound 1 µM): 0.966

NCI-H1734
relative viability ([1]; first compound 0.01 µM): 0.665
relative viability ([1]; first compound 0.1 µM): 0.769
relative viability ([1]; first compound 0.3162 µM): 0.717
relative viability ([1]; first compound 1 µM): 0.632
relative viability ([2]; first compound 0.01 µM): 0.839
relative viability ([2]; first compound 0.1 µM): 0.91
relative viability ([2]; first compound 0.3162 µM): 0.939
relative viability ([2]; first compound 1 µM): 0.857
relative viability ([3]; first compound 0.01 µM): 0.495
relative viability ([3]; first compound 0.1 µM): 0.551
relative viability ([3]; first compound 0.3162 µM): 0.441
relative viability ([3]; first compound 1 µM): 0.494
relative viability ([4]; first compound 0.01 µM): 0.288
relative viability ([4]; first compound 0.1 µM): 0.284
relative viability ([4]; first compound 0.3162 µM): 0.302
relative viability ([4]; first compound 1 µM): 0.161
relative viability ([5]; first compound 0.01 µM): 0.661
relative viability ([5]; first compound 0.1 µM): 0.713
relative viability ([5]; first compound 0.3162 µM): 0.624
relative viability ([5]; first compound 1 µM): 0.53

NCI-H1755
relative viability ([1]; first compound 0.01 µM): 0.972
relative viability ([1]; first compound 0.1 µM): 1.09
relative viability ([1]; first compound 0.3162 µM): 0.88
relative viability ([1]; first compound 1 µM): 0.887
relative viability ([2]; first compound 0.01 µM): 1.04
relative viability ([2]; first compound 0.1 µM): 1.04
relative viability ([2]; first compound 0.3162 µM): 1.05
relative viability ([2]; first compound 1 µM): 1.07
relative viability ([3]; first compound 0.01 µM): 0.468
relative viability ([3]; first compound 0.1 µM): 0.472
relative viability ([3]; first compound 0.3162 µM): 0.406
relative viability ([3]; first compound 1 µM): 0.472
relative viability ([4]; first compound 0.01 µM): 0.578
relative viability ([4]; first compound 0.1 µM): 0.521
relative viability ([4]; first compound 0.3162 µM): 0.506
relative viability ([4]; first compound 1 µM): 0.532
relative viability ([5]; first compound 0.01 µM): 0.765
relative viability ([5]; first compound 0.1 µM): 0.736
relative viability ([5]; first compound 0.3162 µM): 0.827
relative viability ([5]; first compound 1 µM): 0.687

NCI-H1915
relative viability ([1]; first compound 0.01 µM): 0.904
relative viability ([1]; first compound 0.1 µM): 1.1
relative viability ([1]; first compound 0.3162 µM): 0.915
relative viability ([1]; first compound 1 µM): 1.07
relative viability ([2]; first compound 0.01 µM): 1.05
relative viability ([2]; first compound 0.1 µM): 1.16
relative viability ([2]; first compound 0.3162 µM): 1.15
relative viability ([2]; first compound 1 µM): 1.09
relative viability ([3]; first compound 0.01 µM): 0.975
relative viability ([3]; first compound 0.1 µM): 1.09
relative viability ([3]; first compound 0.3162 µM): 1.05
relative viability ([3]; first compound 1 µM): 0.958
relative viability ([4]; first compound 0.01 µM): 0.444
relative viability ([4]; first compound 0.1 µM): 0.498
relative viability ([4]; first compound 0.3162 µM): 0.454
relative viability ([4]; first compound 1 µM): 0.482
relative viability ([5]; first compound 0.01 µM): 0.615
relative viability ([5]; first compound 0.1 µM): 0.737
relative viability ([5]; first compound 0.3162 µM): 0.634
relative viability ([5]; first compound 1 µM): 0.595
